Results published in patent US20080249144A1, “Preventive or Therapeutic Agent for Chronic Inflammatory Lung Disease” (KAKEN PHARMACEUITICAL CO., LTD., priority 2004, published 2008).

How the values were obtained:
[1] = system: vanadium pentoxide-induced bronchitis model; assay: Vanadium pentoxide-induced bronchitis model in mice; format: in vivo; conditions: 7 days after vanadium pentoxide; compared with control
Method: Seven-week old C57BL strain male mice were used. The mouse was anaesthetized with isoflurane. Vanadium pentoxide (20 μg) was administered once to the lung through a cannula inserted into the trachea through the pharyngolarynx to induce pathology. To a non-vanadium pentoxide administration group (normal group), saline was administered, instead. KP-496 was administered by inhalation twice a day in the period from the vanadium pentoxide administration date to the day before autopsy, in the same manner as in Example 2. Furthermore, the normal group and the control group were allowed to spontaneously inhale saline in the same manner. A medicament for use in comparison, prednisolone, was orally administered at a dose of 5 mg/kg twice a day in the period from the vanadium pentoxide administration date to the day before autopsy. Note that the normal group consisted of 6 animals and the other group consisted of 10 animals. Each of the mice was anaesthetized with pentobarbital 7 days after vanadium pentoxide administration and killed by bloodletting from the abdominal aorta. The lung was excised out and fixed in 10 vol % neutral buffered formalin solution. […] The obtained value was divided by the circumferential length of the bronchial lumen (obtained in mucosal basal membrane) and the quotient was expressed as a mucus producing region area per millimeter of the bronchus. […]

[2] = system: murine model of BLM-induced pulmonary fibrosis; assay: BLM-induced pulmonary fibrosis model in mice; format: in vivo
Method: Bleomycin chloride (BLM) was dissolved in a physiological saline solution (saline). BLM was intravenously administered to 10-week-old ICR-strain male mice once in a dose of […] to induce disease. To a non-BLM administration group, saline was administered, instead. KP-496 was administered by inhalation twice a day from the initiation date of BLM administration to the day before autopsy. To describe in brief, a mouse housed in a polyethylene container under unrestrained conditions was allowed to spontaneously inhale a mist state of KP-496 solution (0.5 w/v %) nebulized by a nebulizer for 30 minutes. Furthermore, the vehicle (saline) for KP-496 was administered by inhalation to a control group, in the same manner. A group consisted of 8 animals.
On the 7th day or 21st day after administration of BLM, the mouse was killed by exsanguinations under anaesthesia with pentobarbital. Immediately after that, BAL of the right lung alone was done. BAL fluid (BALF) was centrifuged and the supernatant was removed, and thereafter, precipitated cells were resuspended in saline. The total number of cells was determined by use of a particle counter analyzer. Furthermore, using the remaining cell suspension solution, a smear sample of cells was prepared and stained with Giemsa. The cells were classified according to the cell type. Based on the percentages of cell types, the numbers of classified cells were calculated.
After BAL, the right lung was lyophilized. The content of hydroxyproline in the lung tissue was measured in accordance with the KISO method using chloramine T (Inayama et al., Keio J. Med., 27: 43 (1978)).
After BAL, the left lung was fixed in 10 vol % neutral-buffered formalin solution. Thereafter, a paraffin section was prepared in a general way, stained with H. E. and azan and subjected to histopathologic examination of the lung. When an abnormality was observed, the degree of the abnormality was arbitrarily evaluated under blind conditions and scored based on the following 4 stages:
0: No abnormality is observed
1: Pathologic lesion is locally observed in a limited area of a sample
2: Pathologic lesion is observed about a ⅓ region of a sample
3: Pathologic lesion is observed about a ½ region of a sample
4: Pathologic lesion is observed in substantially the entire region of a sample.
The average value and standard deviation of each group were obtained. Comparison between two groups, that is, between BLM administration/vehicle group and BLM administration/KP-496 group or a saline administration/vehicle group, was performed with the Student's t-test. Furthermore, histopathologic lesion scores were evaluated by the Mann-Whitney test. The significance level (P) was set at […].

[3] = 7th day after BLM, inhalation twice a day
[4] = 21st day after BLM, inhalation twice a day

For CC(C)c1csc(COc2cccc(CN(CCCCNS(=O)(=O)c3ccc(Cl)cc3)S(=O)(=O)c3ccccc3C(=O)O)c2)n1 [KP-496, 2-{N-[4-(4-chlorobenzenesulfonylamino)butyl]-N-{3-[(4-isopropyl-2-thiazolyl)methoxy]benzyl}}sulfamoylbenzoic acid], the “increase of PAS positive area (mucus producing region of intrapulmonary bronchial epithelium)” value [1] was “significantly suppressed”, the “hydroxyproline content of the right lung lobe” value ([2]; 7th day after BLM) was 129.9 ± 11.35 µg and the “total number of cells in BALF” value ([2]; 7th day after BLM, KP-496 0.5 w/v % inhalation twice a day) was 0.6±0.29 ×10^5 cells. For the same molecule, the “number of alveolar macrophages in BALF” value [2, 3] was 0.6±0.27 ×10^5 cells, the “number of eosinophils in BALF” value [2, 3] was 0.3±0.68 ×10^3 cells and the “number of lymphocytes in BALF” value [2, 3] was 0.1±0.09 ×10^4 cells. The “number of neutrophils in BALF” value [2, 3] was 0.2±0.11 ×10^4 cells, the “histopathologic score of acute inflammation, left lung” value ([2]; 7th day after BLM, score 0-4) was 1.0±0.76 and the “hydroxyproline content of the right lung lobe” value ([2]; 21st day after BLM) was 138.0 ± 9.93 µg. The “number of alveolar macrophages in BALF” value [2, 4] was 0.7±0.23 ×10^5 cells, the “number of eosinophils in BALF” value [2, 4] was 0.1±0.21 ×10^3 cells and the “number of lymphocytes in BALF” value [2, 4] was 0.3±0.10 ×10^4 cells. The “number of neutrophils in BALF” value [2, 4] was 0.02±0.02 ×10^4 cells, the “total number of cells in BALF” value [2, 4] was 0.8±0.24 ×10^5 cells and the “histopathologic score of chronic inflammation, left lung” value ([2]; 21st day after BLM, score 0-4) was 1.0±0.76. The “histopathologic score of fibrogenesis, left lung” value ([2]; 21st day after BLM, score 0-4) was 0.6±0.52.
